≈ marks a conversion by molar mass, not a printed value. Like-named read-outs stand apart in the source and are kept apart here.
Experiments:
[1] = target: hNox4 (Homo sapiens (Human), UniProt Q9NPH5); assay: Amplex Red assay of intact Nox4 expressing HEK293 cells; assay type: cell-based
Experimental: HEK293 overexpressing Nox4 (CJ Nox4) cells were purchased from Redoxis, Lund, Sweden. HEK 293 cells expressing Nox5, Nox3 (HEK TRex) and CHO cells expressing Nox1, were a kind gift from Vincent Jaque Center Medical Universitaire, Geneva, Switzerland. Nox2 expressed in isolated neutrophils were isolated from whole blood (human), as previously described (Anvari E, et al., Free Radic Res 2015; 49:1308-1318).
HEK293 cells (CJ Nox4) were cultured in RPMI 1640 with Glutamax supplemented with FBS (10%), penicillin (100 U/ml) and streptomycin […] at 37° C. in air with 5% CO2. Every third passage 200 µg/ml neomycin were supplied in growth medium as selective agent.
(§1) Reactive oxygen produced in whole cells or in membrane preparation of Nox1, Nox3, Nox4, Nox5 and xanthine oxidase and glucose oxidase were determined using Amplex Red as detection probe of formed H2O2. Amplex Red (10-acetyl-3,7-dihydroxyphenoxazine) in combination with HRP and co-factors reacts with H2O2 in a 1:1 stoichiometry to form a highly fluorescent resorufin excitated at 544 nm producing emission at 590 nm.
Adherent cells (CHO, HEK) were collected by trypsinization, centrifuged, washed with HBSS, counted, and resuspended in HBSS. Cells were seeded in 96-well black flat bottom plates at a density of 50,000-100,000 cells/well. All compounds were dissolved in DMSO and concentrations ranging from 0.003 to 200 μM were tested in Nox cellular assays with a final concentration of DMSO of 1%. Cells were incubated at 37° C. with the compounds for 30 minutes before measurement. Cells expressing Nox1 and Nox2 were activated with the PKC activator PMA (0.1 μM). Nox5 was activated with the Ca2+ ionophore ionomycin (1 μM) and further enforced with PMA. The CJ HEK 293 cells overexpressed Nox4 constitutively. In the HTS screen HEK 293 TRex was used and tetracycline ([…]) was added 18 h before measurement to induce Nox4 expression. Production of hydrogen peroxide by Nox in intact cells was measured using Amplex Red fluorescence as described by Jaquet V, et al., Br J Pharmacol 2011; 164:507-520. Assay reagents including HRP ([…]) and Amplex Red (50 μM) were added to initiate production of hydrogen peroxide. Fluorescence was read in a fluorescence plate reader at 37° C. every minute between 30-60 minutes.

[2] = Plasma protein binding, mouse; assay type: in vitro ADME; conditions: 10 μM in plasma, equilibrium dialysis 4 h, read-out: fu % mouse plasma protein
Experimental: (§2) Example compounds were incubated at 10 μM in plasma and then equilibrium dialysed for 4 h, using a rapid equilibrium device. Protein binding (fu %) was determined by LS/MS as previously described (Anvari E, et al., vide supra).

[3] = Determination of chemical stability; assay type: physicochemical
Experimental: Test compound was pipetted into an HPLC vial, from 10 mM DMSO, to yield 2 μM final concentration in three separate vials containing buffers with different pH. At reaction start the three different buffers were mixed with isopropanol (1:2, buffer:isopropanol). The buffers used were: pH 2 (H3PO4/KH2PO4 10 mM), pH 7.4 (KH2PO4/K2HPO4 10 mM) and pH 10 (Glycine/NaOH 10 mM). Immediately (<1 minute) after buffer or buffer/isopropanol addition, a 100 μl aliquot was added to a separate plate containing 100 μl acetonitrile:H2O (60:40) and Warfarin (internal standard, IS), sealed and frozen at −20° C. This test was made for 2 h and 20 h. Analysis was performed on a XEVO TQ mass spectrometer coupled to an Acquity UPLC system in ESI^+MRM mode, separation on a BEH C18 2×50 mm column.

[4] = DPPH redox assay; design: key: The sign “—” stands for “inactive”; conditions: redox activity control
Experimental: DPPH, a well-known sensitive chemical of monitoring reactions involving radicals described by Xiong Q, et al., Biol Pharm Bull 1996; 19:1580-1585, was used as control to exclude any redox active compound. DPPH was incubated with decreasing concentrations (200-0.003 μM) of compounds of the invention or prior art compound GKT136901 (as a positive control). The plate was kept in the dark for 60 min, after which the absorbance of the solution was measured at 518 nm.

[5] = target: xanthine oxidase (Bos taurus (Bovine), UniProt P80457); assay: Amplex Red xanthine oxidase (XO) assay; assay type: biochemical; design: key: The sign “—” stands for “inactive”
Sequence of xanthine oxidase (P80457 whole entry): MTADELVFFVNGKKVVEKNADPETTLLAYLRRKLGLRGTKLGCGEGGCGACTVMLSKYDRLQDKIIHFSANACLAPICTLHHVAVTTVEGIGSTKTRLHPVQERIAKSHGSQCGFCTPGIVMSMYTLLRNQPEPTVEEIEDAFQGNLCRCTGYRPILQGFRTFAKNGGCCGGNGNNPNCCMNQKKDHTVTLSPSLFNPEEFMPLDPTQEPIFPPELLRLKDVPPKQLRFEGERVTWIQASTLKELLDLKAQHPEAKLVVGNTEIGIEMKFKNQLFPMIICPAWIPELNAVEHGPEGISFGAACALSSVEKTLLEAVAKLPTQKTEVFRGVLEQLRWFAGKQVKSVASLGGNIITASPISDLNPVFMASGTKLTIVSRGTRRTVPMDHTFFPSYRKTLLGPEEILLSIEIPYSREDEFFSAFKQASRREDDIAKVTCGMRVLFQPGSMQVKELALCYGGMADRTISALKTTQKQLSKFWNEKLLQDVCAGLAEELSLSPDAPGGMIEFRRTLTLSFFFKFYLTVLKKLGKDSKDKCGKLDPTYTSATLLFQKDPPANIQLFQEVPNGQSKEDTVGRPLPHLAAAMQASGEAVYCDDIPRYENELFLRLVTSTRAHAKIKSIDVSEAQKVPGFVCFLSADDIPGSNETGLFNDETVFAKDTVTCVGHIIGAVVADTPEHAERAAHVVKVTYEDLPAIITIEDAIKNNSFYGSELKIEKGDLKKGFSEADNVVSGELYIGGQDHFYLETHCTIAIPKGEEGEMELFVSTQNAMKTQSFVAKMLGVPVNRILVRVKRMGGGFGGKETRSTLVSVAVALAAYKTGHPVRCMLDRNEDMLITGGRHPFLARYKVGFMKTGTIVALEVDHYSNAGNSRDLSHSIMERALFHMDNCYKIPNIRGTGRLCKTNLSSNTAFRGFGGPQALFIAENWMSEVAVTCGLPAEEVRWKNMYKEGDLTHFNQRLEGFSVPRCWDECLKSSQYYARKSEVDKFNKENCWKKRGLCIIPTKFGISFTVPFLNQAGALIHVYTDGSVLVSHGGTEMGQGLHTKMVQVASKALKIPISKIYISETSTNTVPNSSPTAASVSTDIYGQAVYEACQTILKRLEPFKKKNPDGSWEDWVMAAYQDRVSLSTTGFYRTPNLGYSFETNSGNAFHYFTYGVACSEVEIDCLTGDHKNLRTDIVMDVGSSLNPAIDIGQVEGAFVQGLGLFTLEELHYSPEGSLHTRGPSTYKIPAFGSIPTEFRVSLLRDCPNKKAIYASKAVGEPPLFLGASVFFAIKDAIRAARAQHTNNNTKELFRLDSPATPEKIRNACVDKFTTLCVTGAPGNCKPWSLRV
Experimental: as §1
The assay was designed for Amplex Red analysis of production of hydrogen peroxide. Test compounds were incubated with 5 mU/ml bovine derived xanthine oxidase for 15 min at room temperature followed by the addition of substrate and detection mix (final concentrations of 0.2 U/ml HRP, 5 μM hypoxanthine, and 50 μM Amplex Red). As described by Hirano K et al., Antioxid Redox Signal 2015 10; 23:358-374, production of hydrogen peroxide was followed by fluorescence detection during 30 min at 37° C. in a plate reader that use excitation at 544 nm producing emission at 590 nm.

[6] = Microsomal metabolic stability, mouse; assay type: in vitro ADME; conditions: pooled liver microsomes, pH 7.4, read-out: Metab. stab, mouse t1/2
Experimental: The microsomal metabolic stability assay utilizes pooled human, or animal (mouse) species, liver microsomes with supplemented cofactor (NADPH) to primarily facilitate cytochrome P450 (CYP) reactivity against target compound. Test compound (1 μM incubation concentration) and microsomes (0.5 mg/ml incubation concentration) were diluted in 0.1 M phosphate buffer, pH 7.4, in a volume of 150 μl. The reaction was initiated with addition of NADPH (1 mM). The incubation times were 0, 5, 15, 40 min and the reaction was quenched, at each time point, by addition of 100 μl acetonitrile containing Warfarin as IS. The plate was then sealed, centrifuged and frozen at −20 C until LC-MS/MS analysis.

[7] = Plasma protein binding, human; assay type: in vitro ADME; conditions: 10 μM in plasma, equilibrium dialysis 4 h, read-out: fu % human plasma protein
Experimental: as §2

[8] = Determination of solubility; assay type: physicochemical; conditions: 10 mM potassium phosphate buffer, aqueous buffer, kinetic from dmso stock; 10 mM potassium phosphate pH 7.4, 24 h, room temperature; read-out: Kinetic solub.
Experimental: Two μl of test compound (from 10 mM DMSO stock) were diluted 100× in 10 mM potassium phosphate pH 7.4 in a HPLC glass vial, sealed and incubated for 24 h under rotation (900 rpm) at room temperature. After the incubation 150 μl were transferred to conical glass inserts and centrifuged for 20 min at 10,000×g. Two μl of the supernatant were transferred to a 96-well plate, diluted 100× with acetonitrile/H2O (60/40, vol/vol) and analyzed by LC-MS/MS.

[9] = read-out: IC50 on hNox4 in recombinant cells

Sequence of hNox4 (Q9NPH5 whole entry): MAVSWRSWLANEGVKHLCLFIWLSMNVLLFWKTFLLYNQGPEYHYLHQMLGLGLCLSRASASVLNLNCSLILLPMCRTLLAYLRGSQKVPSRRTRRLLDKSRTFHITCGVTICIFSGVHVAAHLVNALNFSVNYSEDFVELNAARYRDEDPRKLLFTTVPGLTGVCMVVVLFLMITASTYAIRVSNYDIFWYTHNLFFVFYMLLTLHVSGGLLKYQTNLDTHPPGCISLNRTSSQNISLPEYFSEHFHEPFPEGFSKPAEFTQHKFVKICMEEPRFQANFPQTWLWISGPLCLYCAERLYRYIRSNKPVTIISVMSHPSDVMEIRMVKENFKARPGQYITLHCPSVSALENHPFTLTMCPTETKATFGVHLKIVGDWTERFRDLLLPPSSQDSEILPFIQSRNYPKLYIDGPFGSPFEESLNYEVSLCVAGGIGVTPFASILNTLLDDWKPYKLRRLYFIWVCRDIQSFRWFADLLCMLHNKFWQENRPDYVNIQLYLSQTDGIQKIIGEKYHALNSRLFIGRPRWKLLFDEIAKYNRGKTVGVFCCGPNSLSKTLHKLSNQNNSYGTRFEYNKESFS
Sequence of hNox4 (P13498 2-195 partner): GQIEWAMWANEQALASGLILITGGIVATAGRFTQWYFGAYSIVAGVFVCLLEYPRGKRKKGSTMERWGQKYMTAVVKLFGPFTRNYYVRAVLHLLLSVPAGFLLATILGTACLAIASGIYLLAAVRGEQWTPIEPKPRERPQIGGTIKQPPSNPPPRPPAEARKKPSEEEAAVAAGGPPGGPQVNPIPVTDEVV

SMILES	IC50 ([1]; read-out: IC50 Nox4)	fraction unbound at 4 h, 10 μM [2]	Chem. stab. pH 7.4 [3]	IC50 DPPH [4]	IC50 XO [5]	half-life at 1 μM [6]	fraction unbound at 4 h, 10 μM [7]	solubility kinetic at 24 h [8]	IC50 [1, 9]
Cc1cc(O)cc(C)c1S(=O)(=O)NCCc1ccccc1O [Example 48, 4-hydroxy-N-[2-(2-hydroxyphenyl)ethyl]-2,6-dimethyl-benzenesulfonamide]	22 µM	0.005	stable	—	—	16 min	0.011	97 µM (≈ 31.2 µg/mL)	
O=S(=O)(NCCc1ccccc1O)c1c(Cl)cc(Br)cc1Cl [Example 38, 4-bromo-2,6-dichloro-N-[2-(2-hydroxyphenyl)ethyl]benzenesulfonamide]	0.3 µM	0.0056	stable	—	—	2 to 4 min	0.0062	77 µM (≈ 32.7 µg/mL)	
Cc1ccccc1CCNS(=O)(=O)c1c(Cl)cc(Br)cc1Cl [Example 17, 4-bromo-2,6-dichloro-N-[2-(2-methylphenyl)ethyl]benzene-1-sulfonamide]	0.27 µM	0.0004	stable	—	—	2 to 3 min	0.0002	0.16 µM (≈ 0.0677 µg/mL)	0.27 µM
Cc1ccccc1CCNS(=O)(=O)c1c(C)cccc1Cl [Example 11, 2-chloro-6-methyl-N-[2-(2-methylphenyl)ethyl]benzene-1-sulfonamide]	2.4 µM			—	—				2.4 µM
O=S(=O)(NCCc1ccccc1Cl)c1c(Cl)cc(C2CC2)cc1Cl [Example 26, 2,6-dichloro-N-[2-(2-chlorophenyl)ethyl]-4-cyclopropylbenzene-1-sulfonamide]	0.36 µM			—	—				0.36 µM

More lines, in order of falling IC50 ([1]; read-out: IC50 Nox4), values ahead:

IC50 ([1]; read-out: IC50 Nox4)	fraction unbound at 4 h, 10 μM [2]	Chem. stab. pH 7.4 [3]	IC50 DPPH [4]	IC50 XO [5]	half-life at 1 μM [6]	fraction unbound at 4 h, 10 μM [7]	solubility kinetic at 24 h [8]	SMILES	IC50 [1, 9]
2.4 µM	0.025	stable	—	—	7 min	0.015	94 µM (≈ 33.4 µg/mL)	Cc1cc(Cl)c(S(=O)(=O)NCCc2ccccc2O)c(C)c1O [Example 44, 6-chloro-3-hydroxy-N-[2-(2-hydroxyphenyl)ethyl]-2,4-dimethyl-benzenesulfonamide]	
1.7 µM	0.0002	stable	—	—	6 to 20 min	0.0002	4.5 µM (≈ 1.99 µg/mL)	Cc1ccccc1C(F)CNS(=O)(=O)c1c(Cl)cc(Br)cc1Cl (racemic) [Example 35, 4-bromo-2,6-dichloro-N-[2-fluoro-2-(2-methylphenyl)ethyl]benzene-1-sulfonamide]	
1.6 µM	0.017	stable	—	—	1 min	0.03	> 100 µM	COc1cc(C)c(S(=O)(=O)NCCc2ccccc2O)c(C)c1 [Example 47, N-[2-(2-hydroxyphenyl)ethyl]-4-methoxy-2,6-dimethyl-benzenesulfonamide]	
0.8 µM	0.0056	stable	—	—	2 to 4 min	0.011	> 100 µM	Cc1cc(C)c(S(=O)(=O)NCCc2ccccc2O)c(C)c1 [Example 37, N-[2-(2-hydroxyphenyl)ethyl]-2,4,6-trimethylbenzene-1-sulfonamide]	
0.3 µM	0.0021	stable	—	—	2 min	0.0026	16 µM (≈ 5.66 µg/mL)	COc1cc(C)c(S(=O)(=O)NCCc2ccccc2Cl)c(C)c1 [Example 46, N-[2-(2-chlorophenyl)ethyl]-4-methoxy-2,6-dimethyl-benzenesulfonamide]	

— US12202790B2, “Sulfonamide derivatives having selective Nox inhibiting activity” (GLUCOX BIOTECH AB, priority 2018, dated 2025)
